Measurements published in US5521284A, “Human cancer inhibitory pentapeptide amides and esters” (priority 1994, dated 1996).

What was measured:
[1] = system: MX-1 Human Mammary Xenograft; experiment: MX-1 Human Mammary Xenograft (Tumor Regression); format: in vivo, Murine
Source text: (§1) Experimental Anticancer Activity of Dolastatin 10 in
(§2) Murine in vivo Systems, T/C (μg/kg)
(§3) T/C - 100 = % life extension.

[2] = system: L1210 Lymphocytic Leukemia; experiment: Murine in vivo system, L1210 Lymphocytic Leukemia; settings: 1.63 μg/kg; time of survival
Source text: as §1, §2, §3

B16 Melanoma = experiment: Murine in vivo system, B16 Melanoma; settings: 11.11 μg/kg
Source text: as §1, §2, §3

[3] = system: LOX Human Melanoma Xenograph; experiment: LOX Human Melanoma Xenograph (Nude Mouse)
Source text: (§4) T/C = Test Control, both bearing tumor, expressed in time of survival.
as §3

Human Mammary Xenograph = Human Mammary Xenograph Nude Mouse; settings: 26 μg/kg
Source text: as §4, §3

[4] = system: OVCAR-3 Human Ovary Xenograph; experiment: OVCAR-3 Human Ovary Xenograph Nude Mouse; format: in vivo; settings: 40 μg/kg; time of survival
Source text: as §1, §2, §3

[5] = system: P388 Lymphocytic Leukemia; experiment: Murine in vivo system, P388 Lymphocytic Leukemia
Source text: as §4, §3

A498 = experiment: NCI in vitro mini panel, Renal A498; format: cell-based, Human; settings: 48 hrs
Description: (§5) ED50 (P388) and GI50 (HTCL) identify the drug dose which reduces the percent tumor/cell growth to 50%. There is no mathematical difference between ED50 and GI50, both of which are calculated using the same formula. The only difference is historical usage.
(§6) TGI, means "Total Growth Inhibition", and identifies the drug dose needed to yield zero percent growth, i.e. there are just as many cells at the end of the experiment as were present at the beginning. Whether just as many cells were killed as were produced (steady state), or no growth occurred (total inhibition) cannot be distinguished.
(§7) LC50, means "Lethal Concentration 50%", and identifies the drug concentration which reduces to one-half of the cells originally present at the beginning of the experiment.
(§8) Each drug is tested at five (5) doses: 100-10-1-0.1-0.01--μg/mL. Percent Growths are calculated for each dose. The two (or three) doses with growth values above, below, (or near to) 50% growth are used to calculate the ED50 /GI50 values using a linear regression computation. If no dose yields a growth value under 50%, the results are expressed as: ED50 >(highest dose). If no dose yields growth higher than 50% growth, then ED50 <(lowest dose). Similar calculations are performed for the TGI at 0% growth, and at -50% growth for the LC50.
(§9) At the start of each experiment, cells from the in vitro cell cultures are inoculated into the appropriate tubes or microtiter plates. One set of control tubes/plates is immediately counted to determine the number of cells at the start of the experiment. This is the "baseline count", or "Tzero reading". At the end of the experiment (48 hrs later), a second set of control tubes/plates is analyzed to determine the "Control Growth" value. The growth (or death) of cells relative to the initial quantity of cells is used to define the "Percent of Growth."
(§10) For each of six cell lines, GI50, TGI, and LC50 amounts were also calculated for each of the compounds. Each compound was also tested against the PS-388 cell line and for this test an ED50 was calculated.
(§11) The protocols followed, for the NCI minipanel are, except for the number of cell lines, those established by M. R. Boyd Ph.D., and well known to those of ordinary skill in the art. The procedure followed for the test against PS-388 Leukemia is the same that was followed in the superseded NCI P-388 screening test, which is also well known to those having ordinary skill in the art.

PS-388 = PS-388 Mouse Leukemia cell line test; format: cell-based; settings: Mouse Leukemia PS-388
Description: as §5, §8, §9, §10, §11

SF-295 = experiment: NCI in vitro mini panel, CNS SF-295; format: cell-based, Human; settings: 48 hrs
Description: as §5, §6, §7, §8, §9, §10, §11

KM20L2 = experiment: NCI in vitro mini panel, Colon KM20L2; format: cell-based, Human; settings: 48 hrs
Description: as §5, §6, §7, §8, §9, §10, §11

SK-MEL-5 = experiment: NCI in vitro mini panel, Melanoma SK-MEL-5; format: cell-based, Human; settings: 48 hrs
Description: as §5, §6, §7, §8, §9, §10, §11

OVCAR-3 = experiment: NCI in vitro mini panel, Ovarian OVCAR-3; format: cell-based, Human; settings: 48 hrs
Description: as §5, §6, §7, §8, §9, §10, §11

NCI-H460 = experiment: NCI in vitro mini panel, Lung-NSC NCI-H460; format: cell-based, Human; settings: 48 hrs
Description: as §5, §6, §7, §8, §9, §10, §11

Row | Substance | GI-50 (A498) [µg/mL] | LC-50 (A498) [µg/mL] | TGI (A498) [µg/mL] | ED-50 (PS-388) [µg/mL] | GI-50 (SF-295) [µg/mL] | LC-50 (SF-295) [µg/mL] | TGI (SF-295) [ng/mL] | GI-50 (KM20L2) [µg/mL] | LC-50 (KM20L2) [µg/mL] | TGI (KM20L2) [ng/mL] | GI-50 (SK-MEL-5) [µg/mL] | LC-50 (SK-MEL-5) [µg/mL] | TGI (SK-MEL-5) [ng/mL] | GI-50 (OVCAR-3) [µg/mL] | LC-50 (OVCAR-3) [µg/mL] | TGI (OVCAR-3) [ng/mL] | GI-50 (NCI-H460) [µg/mL] | LC-50 (NCI-H460) [µg/mL] | TGI (NCI-H460) [ng/mL] | other results
1 | Dolastatin 10 | – | – | – | – | – | – | – | – | – | – | – | – | – | – | – | – | – | – | – | T/C (Tumor Regression) ([1]; 6.25 μg/kg): 69; T/C (Tumor Regression) ([1]; 13 μg/kg): 61; T/C (Tumor Regression) ([1]; 26 μg/kg): 50; T/C (Tumor Regression) ([1]; 52 μg/kg): 14; T/C [2]: 120; cures (B16 Melanoma): 40%; cures ([3]; 3.25 μg/kg): 17%; T/C ([3]; 3.25 μg/kg, time of survival): 170; cures ([3]; 6.5 μg/kg): 33%; cures ([3]; 13 μg/kg): 50%; cures ([3]; 26 μg/kg): 67%; T/C ([3]; 52 μg/kg): toxic; T/C ([3]; Lox in separate experiments, 43 μg/kg, time of survival): 340; T/C (Human Mammary Xenograph): Toxic; T/C [4]: 300; cures ([5]; 3.25 μg/kg): 17%; cures ([5]; 6.5 μg/kg): 17%; T/C ([5]; 13.0 μg/kg): toxic
2 | Dov-Ie-Dil-Dap-Doe [Compound 12] | 0.000000058 | > 1 | 0.017 | 0.0000248 | 0.000000025 | > 1 | 0.00025 | 0.0000000072 | > 1 | 0.0001 | 0.0000000048 | > 1 | 0.00015 | 0.0000000091 | > 1 | 6e-05 | 0.0000000058 | > 1 | 6.5e-05 | –
3 | Dov-Val-Dil-Dap Octyl ester [Compound 16b] | 0.025 | > 1 | 0.55 | 0.029 | 0.0054 | > 1 | > 1000 | 0.0017 | > 1 | 130 | 0.0027 | > 1 | > 1000 | 0.0031 | > 1 | 40 | 0.0042 | > 1 | 58 | –
4 | Dov-Val-Dil-Dap Pentyl ester [Compound 16a] | < 0.0001 | > 1 | 0.18 | 0.021 | – | > 1 | 21 | – | > 1 | 13 | 0.00066 | > 1 | 31 | 0.00052 | > 1 | 1.1 | 0.00034 | > 1 | 1.1 | –
5 | Dov-Val-Dil-Dap hexylamide [Compound 16c] | 0.0019 | > 0.01 | > 0.01 | 0.00227 | 0.0011 | > 0.01 | > 10 | 0.00092 | > 0.01 | 6.6 | 0.00058 | > 0.01 | > 10 | 0.0005 | > 0.01 | 3.9 | 0.00071 | > 0.01 | 5.1 | –
6 | Dov-ile-Dil-Dap-Met-OMe [Compound 14] | 0.00027 | > 1 | 0.035 | 0.00032 | 0.00025 | > 1 | > 1000 | 0.000034 | > 1 | 1.3 | 0.000044 | > 1 | 22 | 0.000067 | > 1 | 0.67 | 0.00012 | > 1 | 0.13 | –
